Results reported in PubChem BioAssay (NCI).
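Here, GI50 denotes the concentration required for 50% inhibition of growth. The concentration for full growth arrest is given as TGI.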

Tests used:
Assay in all cases: inhibition of tumour cell growth, NCI panel, 384-well format
SN12C renal = tested on: SN12C renal
SNB-19 CNS = tested on: SNB-19 CNS
786-0 renal = tested on: 786-0 renal
NCI-H226 lung = tested on: NCI-H226 lung
HCC-2998 colon = tested on: HCC-2998 colon
UACC-257 melanoma = tested on: UACC-257 melanoma
COLO 205 colon = tested on: COLO 205 colon
DU-145 prostate = tested on: DU-145 prostate
ACHN renal = tested on: ACHN renal
OVCAR-3 ovarian = tested on: OVCAR-3 ovarian
RPMI-8226 leukemia = tested on: RPMI-8226 leukemia
OVCAR-8 ovarian = tested on: OVCAR-8 ovarian
UACC-62 melanoma = tested on: UACC-62 melanoma
SW-620 colon = tested on: SW-620 colon
NCI-H23 lung = tested on: NCI-H23 lung
MDA-MB-468 breast = tested on: MDA-MB-468 breast
KM12 colon = tested on: KM12 colon
HCT-15 colon = tested on: HCT-15 colon
HCT-116 colon = tested on: HCT-116 colon
NCI-H322M lung = tested on: NCI-H322M lung
UO-31 renal = tested on: UO-31 renal
MDA-MB-231 breast = tested on: MDA-MB-231 breast
MDA-MB-435 melanoma = tested on: MDA-MB-435 melanoma
T-47D breast = tested on: T-47D breast
NCI-H460 NSCLC = tested on: NCI-H460 NSCLC
K-562 leukemia = tested on: K-562 leukemia
HOP-92 NSCLC = tested on: HOP-92 NSCLC
NCI/ADR-RES ovarian = tested on: NCI/ADR-RES ovarian
RXF 393 renal = tested on: RXF 393 renal
SK-OV-3 ovarian = tested on: SK-OV-3 ovarian
A549 NSCLC = tested on: A549 NSCLC
NCI-H522 lung = tested on: NCI-H522 lung
IGROV1 ovarian = tested on: IGROV1 ovarian
SF-295 CNS = tested on: SF-295 CNS
MOLT-4 leukemia = tested on: MOLT-4 leukemia
SF-539 CNS = tested on: SF-539 CNS
MALME-3M melanoma = tested on: MALME-3M melanoma
HOP-62 NSCLC = tested on: HOP-62 NSCLC
SK-MEL-2 melanoma = tested on: SK-MEL-2 melanoma
HL-60(TB) leukemia = tested on: HL-60(TB) leukemia
MCF7 breast = tested on: MCF7 breast
CCRF-CEM leukemia = tested on: CCRF-CEM leukemia
CAKI-1 renal = tested on: CAKI-1 renal
OVCAR-5 ovarian = tested on: OVCAR-5 ovarian
OVCAR-4 ovarian = tested on: OVCAR-4 ovarian
LOX IMVI melanoma = tested on: LOX IMVI melanoma
M14 melanoma = tested on: M14 melanoma
BT-549 breast = tested on: BT-549 breast
TK-10 renal = tested on: TK-10 renal
SF-268 CNS = tested on: SF-268 CNS
HT29 colon = tested on: HT29 colon
A498 renal = tested on: A498 renal
PC-3 prostate = tested on: PC-3 prostate
U251 glioblastoma = tested on: U251 glioblastoma
SK-MEL-28 melanoma = tested on: SK-MEL-28 melanoma
SR leukemia = tested on: SR leukemia
SK-MEL-5 melanoma = tested on: SK-MEL-5 melanoma

## CN(CC(=O)N(Cc1ccc(C2CCCCC2)cc1)c1ccc(C(=O)O)c(O)c1)S(=O)(=O)c1c(F)c(F)c(F)c(F)c1F
SN12C renal
  GI50: 2.09 µM
  TGI: 3.78 µM
SNB-19 CNS
  GI50: 1.99 µM
  TGI: 3.6 µM
786-0 renal
  GI50: 2.61 µM
  TGI: 7.22 µM
NCI-H226 lung
  GI50: 2.6 µM
  TGI: 5.69 µM
HCC-2998 colon
  GI50: 1.71 µM
  TGI: 3.1 µM
UACC-257 melanoma
  GI50: 1.75 µM
  TGI: 3.18 µM
COLO 205 colon
  GI50: 2.86 µM
  TGI: 6.54 µM
DU-145 prostate
  GI50: 18.6 µM
  TGI: 32.6 µM
ACHN renal
  GI50: 12.4 µM
  TGI: 24.9 µM
OVCAR-3 ovarian
  GI50: 2.19 µM
  TGI: 4.24 µM
RPMI-8226 leukemia
  GI50: 1.79 µM
  TGI: 3.18 µM
OVCAR-8 ovarian
  GI50: 1.92 µM
  TGI: 3.47 µM
UACC-62 melanoma
  GI50: 1.92 µM
  TGI: 3.36 µM
SW-620 colon
  GI50: 1.93 µM
  TGI: 3.37 µM
NCI-H23 lung
  GI50: 6.96 µM
  TGI: 18.3 µM
MDA-MB-468 breast
  GI50: 2.18 µM
  TGI: 3.7 µM
KM12 colon
  GI50: 4.16 µM
  TGI: 13.4 µM
HCT-15 colon
  GI50: 1.93 µM
  TGI: 3.36 µM
HCT-116 colon
  GI50: 1.83 µM
  TGI: 3.29 µM
NCI-H322M lung
  GI50: 4.14 µM
  TGI: 12.6 µM
UO-31 renal
  GI50: 12.5 µM
  TGI: 25 µM
MDA-MB-231 breast
  GI50: 1.98 µM
  TGI: 3.47 µM
MDA-MB-435 melanoma
  GI50: 2.29 µM
  TGI: 4.28 µM
T-47D breast
  GI50: 6.09 µM
  TGI: 18.6 µM
NCI-H460 NSCLC
  GI50: 4.96 µM
  TGI: 16.9 µM
K-562 leukemia
  GI50: 2.1 µM
  TGI: 3.56 µM
HOP-92 NSCLC
  GI50: 2.65 µM
  TGI: 5.88 µM
NCI/ADR-RES ovarian
  GI50: 15.3 µM
  TGI: 28.6 µM
RXF 393 renal
  GI50: 1.83 µM
  TGI: 3.41 µM
SK-OV-3 ovarian
  GI50: 4.48 µM
  TGI: 15.5 µM
A549 NSCLC
  GI50: 16.8 µM
  TGI: 30.6 µM
NCI-H522 lung
  GI50: 1.88 µM
  TGI: 3.29 µM
IGROV1 ovarian
  GI50: 1.79 µM
  TGI: 3.34 µM
SF-295 CNS
  GI50: 16.2 µM
  TGI: 29.8 µM
MOLT-4 leukemia
  GI50: 1.89 µM
  TGI: 3.32 µM
SF-539 CNS
  GI50: 2.01 µM
  TGI: 3.76 µM
MALME-3M melanoma
  GI50: 2.52 µM
  TGI: 4.96 µM
HOP-62 NSCLC
  GI50: 5.27 µM
  TGI: 16.2 µM
SK-MEL-2 melanoma
  GI50: 2.02 µM
  TGI: 3.62 µM
HL-60(TB) leukemia
  GI50: 1.75 µM
  TGI: 3.14 µM
MCF7 breast
  GI50: 1.88 µM
  TGI: 3.54 µM
CCRF-CEM leukemia
  GI50: 1.81 µM
  TGI: 3.21 µM
CAKI-1 renal
  GI50: 2.44 µM
  TGI: 5.2 µM
OVCAR-5 ovarian
  GI50: 19.1 µM
  TGI: 33.2 µM
OVCAR-4 ovarian
  GI50: 10.7 µM
  TGI: 22.6 µM
LOX IMVI melanoma
  GI50: 1.93 µM
  TGI: 3.36 µM
M14 melanoma
  GI50: 2 µM
  TGI: 3.55 µM
BT-549 breast
  GI50: 2.1 µM
  TGI: 3.7 µM
TK-10 renal
  GI50: 14.5 µM
  TGI: 27.6 µM
SF-268 CNS
  GI50: 1.94 µM
  TGI: 3.46 µM
HT29 colon
  GI50: 2.29 µM
  TGI: 4.83 µM
A498 renal
  GI50: 15.1 µM
  TGI: 28.4 µM
PC-3 prostate
  GI50: 2.17 µM
  TGI: 3.96 µM
U251 glioblastoma
  GI50: 1.85 µM
  TGI: 3.28 µM
SK-MEL-28 melanoma
  GI50: 2.58 µM
  TGI: 5.55 µM
SR leukemia
  GI50: 1.79 µM
  TGI: 3.2 µM
SK-MEL-5 melanoma
  GI50: 4.6 µM
  TGI: 14.5 µM
